Peptide text beside a SMILES is read from it.
Key:
[1] = test system: B16F10 melanoma cells; assay: Lung tumor colonization assay; type: in vivo, C57BL/6 female mice; conditions: B16F10 cells (5×10^5) mixed with 0.1 mL peptide at 5 mg/mL, tail vein injection, lungs counted after three weeks, FIG. 2
Protocol: B16F10 melanoma cells, obtained from I. J. Fidler, M. D., Anderson Hospital, Houston, Tex., are propagated under standard culture conditions. The lung tumor colonization assay is carried out as described in Fidler, I. J., Nature (London) (New Biol) 242:148 (1973). Peptides are dissolved at 5 mg/mL in PBS and are filter-sterilized. The suspension of B16F10 cells (5×10^5) in 0.1 mL of DMEM is mixed with 0.1 mL of the peptide, (or 0.1 ml PBS in Control) incubated for 5 minutes at room temperature, and then injected into the tail vein of syngeneic C57BL/6 female mice (Jackson Labs., Bar Habor, Me.) at 6 weeks of age. Each treatment and control group consists of eight mice. Three weeks after the injections, the mice are killed and the number of pulmonary tumors on the surface of the lungs counted.

[2] = test system: HT-1080 cells; assay: In vitro cell attachment assay; type: cell-based; conditions: HT-1080 human fibrosarcoma cells; attachment to peptide-coated wells / inhibition of attachment to laminin; FIG. 1
Protocol: HT-1080 cells from a human fibrosarcoma (Rasheed, S. et al., Cancer (Philadelphia) 33:1027 (1974) are maintained in Dulbecco's modified Eagle's medium (DMEM) supplemented with 10% fetal calf serum. After the cells are grown to 80% confluency, they are washed with 0.02M phosphate buffer, pH 7.4, without CA ^30 2 and Mg^30 2 and detached with a solution of 0.025% trypsin plus 0.025% ethylenediaminetetraacetic acid (EDTA; GIBCO). The cells are then pelleted by lowspeed centrifugation and resuspended in Eagle's minimal essential medium (EMEM) containing 0.02% bovine serum albumin (BSA, Sigma Chemical Co., St. Louis, Mo.). Cell attachment assays are performed as described in Klebe, R. J. Nature (London) 250:248 (1974), on tissue culture plastic substrates by using 16-mm Falcon tissue culture wells (Fisher Scientific Co., Pittsburg, Pa.) incubated with various peptides or with laminin in 1 mL of EMEM containing 0.02% BSA for 1 or 2 hours at 37° C. Cells (10^5 in 0.1 1 mL) are added to the wells, and the solution is incubated for an additional 1 hour at 37° C. in 95% air and 5% CO2. Subsequently, the wells are rinsed 3 times with 1 mL of phosphate-buffered saline (PBS) to remove unattached cells. Attached cells are trypsinized and counted electronically (Coulter, ZBI). […]

CC[C@H](C)[C@H](NC(=O)[C@H](Cc1ccc(O)cc1)NC(C)=O)C(=O)NCC(=O)N[C@@H](CO)C(=O)N[C@@H](CCCNC(=N)N)C(N)=O [AcYIGSR-NH2] (Ac-YIGSR-NH2)
antimetastatic effectiveness (number of pulmonary tumors on the surface of the lungs) relative to YIGSR-NH2 [1]: at least twice as effective as YIGSR-NH2 | antimetastatic effectiveness (number of pulmonary tumors on the surface of the lungs) relative to YIGSR-NH2 ([1]; listed as peptide of the invention): at least twice as effective as linear YIGSR-NH2 | cell adhesion activity [2]: having cell adhesion activity
